Reference: patent publication US20070227388A1, “Tetrakisazo Compound, Coloring Matter for Recording, Ink Composition and Colored Article” (priority 2004, published 2007)

experiment: solubility test in water (ammonia alkali) by filter paper spot; assay type: physicochemical
Experimental: (Desalination process) After 83.0 parts of the compound of Formula (28) obtained in the fifth process was dissolved in 800 parts of water, 900 parts of methanol was added, and the deposited coloring matter was filtered and then dried to obtain 66.4 parts of desalted black coloring matter of Formula (28) (a compound No. 1 in Table 1: Na salt). The maximum absorption wavelength (λ max) of this coloring matter in water was 619 nm, and solubility test in water (ammonia alkali) by filter paper spot was no less than 100 g/l. [drawing 72]

| solubility | Compound |
| --- | --- |
| ≥ 100 mg/mL | COc1ccc(N=Nc2c(S(=O)(=O)O)cc3c(S(=O)(=O)O)c(N=Nc4cc(S(=O)(=O)O)c5cc(S(=O)(=O)O)c(N=Nc6ccc7c(O)c(N=Nc8ccccc8S(=O)(=O)O)c(S(=O)(=O)O)cc7c6)c(O)c5c4N)ccc3c2O)c(S(=O)(=O)O)c1 [No. 1] |
| ≥ 100 mg/mL | COc1ccc(N=Nc2c(S(=O)(=O)O)cc3cc(S(=O)(=O)O)c(N=Nc4cc(S(=O)(=O)O)c5cc(S(=O)(=O)O)c(N=Nc6ccc7c(O)c(N=Nc8ccccc8S(=O)(=O)O)c(S(=O)(=O)O)cc7c6)c(O)c5c4N)cc3c2O)c(S(=O)(=O)O)c1 [No. 2] |
| ≥ 100 mg/mL | Nc1c(N=Nc2ccc3cc(S(=O)(=O)O)c(N=Nc4ccc([N+](=O)[O-])cc4S(=O)(=O)O)c(O)c3c2)cc(S(=O)(=O)O)c2cc(S(=O)(=O)O)c(N=Nc3ccc4c(O)c(N=Nc5ccc([N+](=O)[O-])cc5S(=O)(=O)O)c(S(=O)(=O)O)cc4c3S(=O)(=O)O)c(O)c12 [No. 6] |
| ≥ 100 mg/mL | Nc1c(N=Nc2cc3c(O)c(N=Nc4ccc([N+](=O)[O-])cc4S(=O)(=O)O)c(S(=O)(=O)O)cc3cc2S(=O)(=O)O)cc(S(=O)(=O)O)c2cc(S(=O)(=O)O)c(N=Nc3ccc4c(O)c(N=Nc5ccc([N+](=O)[O-])cc5S(=O)(=O)O)c(S(=O)(=O)O)cc4c3S(=O)(=O)O)c(O)c12 [No. 13] |
| ≥ 100 mg/mL | Nc1c(N=Nc2ccc3c(O)c(N=Nc4cc(C(=O)O)cc(C(=O)O)c4)c(S(=O)(=O)O)cc3c2S(=O)(=O)O)cc(S(=O)(=O)O)c2cc(S(=O)(=O)O)c(N=Nc3ccc4c(O)c(N=Nc5cc(C(=O)O)cc(C(=O)O)c5)c(S(=O)(=O)O)cc4c3S(=O)(=O)O)c(O)c12 [No. 17] |
| ≥ 100 mg/mL | COc1ccc(N=Nc2c(S(=O)(=O)O)cc3c(S(=O)(=O)O)c(N=Nc4cc(S(=O)(=O)O)c5cc(S(=O)(=O)O)c(N=Nc6ccc7c(O)c(N=Nc8ccc(OC)cc8S(=O)(=O)O)c(S(=O)(=O)O)cc7c6S(=O)(=O)O)c(O)c5c4N)ccc3c2O)c(S(=O)(=O)O)c1 [No. 19] |
| ≥ 100 mg/mL | COc1ccc(N=Nc2c(S(=O)(=O)O)cc3cc(N=Nc4c(S(=O)(=O)O)cc5c(S(=O)(=O)O)cc(N=Nc6ccc7cc(S(=O)(=O)O)c(N=Nc8ccc(OC)cc8S(=O)(=O)O)c(O)c7c6)c(N)c5c4O)ccc3c2O)c(S(=O)(=O)O)c1 [No. 21] |

| Compound | solubility |
| --- | --- |
| Nc1c(N=Nc2ccc3c(O)c(N=Nc4ccc([N+](=O)[O-])cc4S(=O)(=O)O)c(S(=O)(=O)O)cc3c2S(=O)(=O)O)cc(S(=O)(=O)O)c2cc(S(=O)(=O)O)c(N=Nc3ccc4c(O)c(N=Nc5ccc([N+](=O)[O-])cc5S(=O)(=O)O)c(S(=O)(=O)O)cc4c3S(=O)(=O)O)c(O)c12 [No. 16] | ≥ 100 mg/mL |
